Assay results published in patent publication US7754748B2, “Method for treating obesity” (Duke University, priority 2002, dated 2010).
Values belong to the compound of their own block, whether it stands above or below them.

Assays:
[1] = 16-week randomized, double blind acute phase, zonisamide vs placebo in obese subjects; assay type: in vivo, human
Text: Sixty-eight subjects were screened for participation and 60 subjects were randomized.
Inclusion criteria were: male or female, aged 21-50 years, with body mass index (BMI) of ≧30 kg/m^2.
(§1) The study had two phases. The first was the acute phase—a 16-week, randomized, double blind, parallel-group comparison of zonisamide (ZON) and placebo (PBO). This was followed by an optional 16-week extension phase. At the end of the acute phase, subjects wishing to continue further received the same treatment for an additional 16 weeks in a single-blinded fashion.
The subjects were randomized in a 1:1 ratio to receive zonisamide or placebo capsules. Study medication was dispensed under blinded conditions through computer-based randomization. The randomization was generated using a random number table with a block size of ten. There was no stratification by gender or other demographics. The study investigators were blind to the “blocking” method used by the pharmacy. The treatment assignment codes were not available to the investigators until all subjects completed the acute phase, the data were entered, and the database for this phase was locked, meaning that no further changes could be made to the data.
The study medication was dispensed in the form of capsules. Each capsule contained either 100 milligrams zonisamide or placebo. The capsules were made to look identical. The dose escalation was as follows: one capsule (zonisamide 100 mg or placebo) every evening for the first 2 weeks; two capsules (zonisamide 200 mg or placebo) every evening during Weeks 3 and 4; three capsules (zonisamide 300 mg or placebo) every evening during Weeks 5 and 6; and, four capsules (zonisamide 400 mg or placebo) every evening from Week 7 onward. At Week 12, the dose could be increased further to six capsules (zonisamide 600 mg or placebo) every evening for subjects who had not lost at least 5% of their initial body weight. If a subject preferred not to take all six capsules at one time, taking a half of the daily dose in the morning was an option. Based on tolerability, dose escalation could be withheld, or the dose might also be decreased. Medication compliance was overseen by recording the number of tablets returned and comparing this number to the number of capsules dispensed at each visit.
Subjects in both treatment groups were instructed to follow an individual diet that was 500 Kcal/day less than what they needed to maintain their weight. The prescribed diet, based on eating a variety of foods from the Food Guide Pyramid, emphasized decreasing portions, eating more fruits and vegetables, and drinking 8 cups of water each day. Increased physical activity was also encouraged for subjects in both groups. Subjects were asked to record their dietary intake including portion sizes in food diaries, which were provided to them. A registered dietician reviewed food diaries and provided counseling to all subjects. Subjects were encouraged to make healthy changes in their diets and physical activity that could be maintained after the completion of the study.
(§2) During each visit, the following assessments were performed: blood pressure, heart rate, weight, dietary compliance, medication accountability and tolerability, and adverse effects. Body weight was measured on a calibrated electronic scale to the nearest 0.1 kilogram. A registered dietitian reviewed food diaries and assessed dietary compliance. Adverse effects were gathered via spontaneous reporting by subjects as well as open-ended inquiries by the clinicians.
In addition to the above, the subjects completed the Impact of Weight on Quality of Life (IWQOL) (Kolotin et al, Obesity Res. 3:49-56 (1995)) at baseline, Week 8, and Week 16. The IWQOL is a self-report measure with 74 items that assess the perceived effect of weight on quality of life in the following domains (subscales)—health, social/interpersonal life, work, mobility, self-esteem, sexual life, activities of daily living, and eating (comfort with food). […]

[2] = optional 16-week single-blinded extension phase (to Week 32), zonisamide vs placebo in obese subjects; assay type: in vivo, human; conditions: for mean weight loss at Week 32: placebo 1.82% (0.73%)
Procedure: as §1, §2
In addition to the above, the subjects completed the Impact of Weight on Quality of Life (IWQOL) (Kolotin et al, Obesity Res. 3:49-56 (1995)) at baseline, Week 8, and Week 16. The IWQOL is a self-report measure with 74 items that assess the perceived effect of weight on quality of life in the following domains (subscales)—health, social/interpersonal life, work, mobility, self-esteem, sexual life, activities of daily living, and eating (comfort with food). Improvement with treatment is reflected by decreasing scores on all the subscales with the exception of the eating (comfort with food) subscale, which is expected to show less comfort around food with effective treatment. Body composition (fat and lean masses) and bone mineral density (BMD) were determined, at baseline and Week 32, by dual x-ray absorptiometry (DXA; Hologic 2000, Waltham, Mass.). All DXA measurements were gathered using the same equipment and techniques. Subjects were instructed to fast for 8 hours and not to drink water or other beverages for at least 4 hours prior to DXA measurement.
Weight change during the study was assessed in terms of actual weight change over the six study intervals using multivariable regression methodology, and as a dichotomous outcome of ‘response,’ i.e., 5% weight loss at Week 16, and 5% and 10% weight loss at Week 32. The proxy variables denoting response status were tested across treatment conditions again using Fisher's exact test. Three multivariable regression analyses were conducted. In the first, body weight at each time point was modeled using a random effects growth curve model. Heuristically, the model fits a regression line for each subject using available data points, thus maximizing use of actual data. For the second set of analyses, body weights were regressed as above with missing observations carried forward from the last recorded weight based on an intent-to-treat approach (LOCF). The final model was restricted to the subset of respondents with no missing data (completers).
Secondary analyses were conducted over three general areas of interest. In each case, analyses were based on 2×2 repeated measures ANOVAs that included time, drug condition, and their interaction (time-by-drug). The primary interest in each instance was to determine if subjects in the zonisamide condition were differentially affected relative to controls as operationally determined by testing the significance of the estimated interaction term. Tests in first area of interest focused on clinical indicators including levels of creatinine, glucose, triglycerides, high and low density lipoproteins (all assessed at baseline and study conclusion), waist measurements (baseline, Week 8 and Week 16), blood pressure (systolic and diastolic), and heart rate. The second general area of sampled quality of life indicators including activities of daily living, appetite, esteem, health, interpersonal relations, mobility, sex, and work using the IWQOL Scale; repeated measurements were taken at baseline, Week 8, and Week 16). The final set of secondary analyses sampled hunger and appetite using the Visual Analogue Scale for Hunger and Food Cravings. […]

[3] = Example 3 case: obese person, zonisamide then bupropion SR added; assay type: in vivo, human
Procedure: An obese person (weight 246 lb, BMI 41.4 kg/m^2) who had not benefited from various treatments, was started on zonisamide 100 mg/day and the dose was increased gradually to 400 mg a day over the next 4 weeks. […] At this point, zonisamide dose was increased to 600 mg a day; the patient achieved an additional weight loss of 0.6 lb in the next month. Thus, after 3 months of zonisamide therapy, the total weight loss with zonisamide therapy was 5.2 lb. […] They reported that they felt “full” after eating small portions of food, and had more energy.

[4] = Example 4 case: obese person, zonisamide then bupropion added; assay type: in vivo, human
Procedure: An obese person received zonisamide in a clinical trial and achieved weight loss of 35.6 lb over 32 weeks. During the 5 weeks following discontinuation of zonisamide, they gained 7.7 lb. Zonisamide was restarted, but this intervention was unsuccessful in offsetting the regained weight; after 16 weeks of therapy at doses up to 400 mg/d, the patient gained 1.2 lb.

[5] = optional 16-week single-blinded extension phase (to Week 32), zonisamide vs placebo in obese subjects; assay type: in vivo, human; conditions: Week 32, versus placebo; p<0.0030, p<0.0651, p<0.0019, P<0.0005
[6] = epileptic patients taking other concomitant AEDs; small percent of patients; cited from earlier work
[7] = Example 2 case: obese person, bupropion then zonisamide added; assay type: in vivo, human
Procedure: At this point, zonisamide was added to the regimen at 100 mg/day and the dose was increased after 2 weeks to 200 mg/day. […] No further information is available as the patient has relocated.

serum creatinine after treatment ([1]; acute phase, baseline 0.79 (0.03) mg/dL, placebo 0.76 to 0.79): 0.92 (0.03) mg/dL
increase in serum creatinine ([1]; no further increase in the extension phase, no value exceeded upper limit of normal): approximately 16%
subjects reporting fatigue ([1]; of 30, placebo 1, p<0.006): 10 subjects
bone mineral density at lumbar vertebrae (L-BMD) ([2]; DXA, baseline vs Week 32): did not change over time
serum creatinine after treatment ([2]; extension phase subjects, baseline 0.78 (0.03) mg/dL, placebo 0.75 to 0.77): 0.92 (0.03) mg/dL
estimated rate of occurrence of kidney stones ([2]; for the duration of treatment in this study (approximately 8 months)): 62.5 per 1000 patient-years of exposure
SMILES: NS(=O)(=O)Cc1noc2ccccc12 [zonisamide]
heart rate change versus placebo ([1]; 16 weeks, overall sample decreased approximately 2 beats/min): no difference between the groups
absolute weight at Week 16 ([1]; ITT-LOCF, baseline 98.17 (2.5) kg, placebo 97.75 to 96.86 kg): 92.28 (2.47) kg
subjects achieving >=10% weight loss at Week 16 ([1]; ITT-LOCF, placebo 0/30, p<0.0053): 7/30
subjects achieving >=5% weight loss at Week 16 (number) ([1]; ITT-LOCF, placebo 3 of 30, p<0.0003): 17 of 30
subjects achieving >=5% weight loss at Week 16 (percent) ([1]; ITT-LOCF, placebo 10%): 57%
predicted weight loss per week (drug-by-time interaction regression coefficient) ([1]; LOCF intent-to-treat imputation): 0.29 kg/wk
mean (SE) estimated weight loss ([1]; Week 16, ITT analysis with LOCF, n=30, placebo 1.02% (0.40%), p<0.0001): 5.98%
systolic and diastolic blood pressure readings ([1]; by four months): did not change
weight loss, subjects completing the 16-week acute phase ([1]; completers, Week 16, placebo 1.30% (0.49%)): 6.61%
predicted weight loss per week (drug-by-time interaction regression coefficient) ([1]; likelihood imputed model, versus placebo): > 0.3 kg
predicted weight loss per week (drug-by-time interaction regression coefficient) ([1]; model based only on complete-data subjects): 0.21 kg/wk
adverse effects (AEs) reported per subject, average ([1]; over the study period, placebo 1.6, p<0.125): 2.1
tolerability ([1]; whole study): generally well tolerated
total bone mineral density ([2]; DXA, baseline vs Week 32, both groups, no difference between groups, not clinically significant): small, but statistically significant (p<0.017) increase
mean lipid values ([2]; either treatment, significant reductions for some subjects): No clinically significant changes
absolute weight at Week 32 ([2]; from 96.88 (3.01) kg, placebo 96.39 to 94.85 kg): 87.64 (2.95) kg
subjects who lost >=10% weight at Week 32 ([2]; none of the placebo subjects, p<0.0004): Ten of 19
heart rate ([2]; over 32 weeks): no significant change
mean weight loss at Week 32 [2]: 9.4%
mean weight loss at Week 32 ([2]; listed as Zonisamide): 9.37%
total weight loss ([3]; after 3 months of zonisamide therapy): 5.2 lb
weight lost ([3]; after one month, zonisamide up to 400 mg a day, start weight 246 lb): 4.6 lbs
additional weight loss ([3]; in the next month, zonisamide 600 mg a day): 0.6 lb
weight change during the second month ([3]; zonisamide 400 mg a day): no further weight loss
weight gained on restarted therapy ([4]; after 16 weeks of restarted zonisamide at doses up to 400 mg/d): 1.2 lb
weight gained following discontinuation ([4]; during the 5 weeks following discontinuation of zonisamide): 7.7 lb
weight loss ([4]; over 32 weeks, zonisamide in a clinical trial): 35.6 lb
Impact of Weight on Quality of Life (IWQOL): Health, Work, Mobility, Activities of Daily Living [5]: improved more significantly
weight loss observed as an adverse effect [6]: a small degree of weight loss

SMILES: CC(NC(C)(C)C)C(=O)c1cccc(Cl)c1 (centres unmarked) [bupropion]
net weight loss ([7]; after 2 months on bupropion): 1.6 lbs
weight lost ([7]; after one month, bupropion 150 mg twice a day, start weight 271 lb): 5 lbs
weight regained ([7]; during the second month on bupropion): 3.4 lbs
